The values below come from patent US7902354B2, “Lapachone compounds and methods of use thereof” (ArQule, Inc., priority 2006, dated 2011).

Structures are written as SMILES.

Experiment [1] has as its system K-562 human leukemia cells. Briefly: MTS cell viability assay, K-562 human leukemia cells. The conditions noted are these: K562, K-562, 4 h compound incubation, MTS, read-out: IC50 Values, Cancerous Cells, Leukemia K-562. It counts as cell-based. In general terms: Formazan colour is commonly taken as a measure of viable cells.
Experiment [2] deals with DLD-1 human colon carcinoma cells. Briefly: MTS cell viability assay, DLD-1 human colon carcinoma cells. It counts as cell-based. The settings on record: DLD-1, 4 h compound incubation, MTS, read-out: IC50 Values, Cancerous Cells, Colon DLD-1.
The test system of experiment [3] is DU-145 human prostate carcinoma cells. Briefly: MTS cell viability assay, DU-145 human prostate carcinoma cells. Type of experiment: cell-based. The settings on record: DU-145, 4 h compound incubation, MTS, read-out: IC50 Values, Cancerous Cells, Prostate DU-145.
The subject of experiment [4] is HT-29 human colon carcinoma cells. Briefly: MTS cell viability assay, HT-29 human colon carcinoma cells. It counts as cell-based. The conditions noted are these: 4 h compound incubation, read-out: IC50 Values, Cancerous Cells, Colon HT-29.
A further experiment deals with E2F-1. Briefly: E2F-1 induction in HT-29 cells. Type of experiment: cell-based, human. An excerpt:
Another effect of the compounds of the present invention is the induction or elevation of activity (e.g. elevation of the level) of one or more checkpoint molecules (i.e., a member of the E2F family of transcription factors). Studies have shown that β-lapachone induces activation of E2F1 checkpoint pathway in nuclei of cancer cells but not in normal cells, resulting in the arrest of cancer cells in G1 and/or S phase. Several compounds of the present invention were effective in activating the E2F1 checkpoint pathway (e.g. elevation of E2F1 levels), thus causing G1 and/or S phase arrest. Furthermore, the compounds of the present invention have no significant toxic effects on normal cells (See. Table 1). The assays of the present invention as shown in Table 1 and methods of measuring induction of E2F1 activity and elevation of E2F1 levels can be carried out following the descriptions found in Li et al., (2003) Proc Natl Acad Sci USA. 100(5): 2674-8 and U.S. Patent Application Publication No. 2002/0169135, both incorporated herein by reference.

Experiment [5] concerns NCM-460 normal colon epithelial cells. Nature of the experiment: MTS cell viability assay, NCM-460 normal colon epithelial cells. Type of experiment: cell-based. The conditions noted are these: for IC50: Homo sapiens, NCM460, NCM-460, 4 h compound incubation, MTS, read-out: IC50 Values, Normal Cells, Colon NCM-460; for Fold Selectivity (NCM-460/DLD1): ratio of IC50 NCM-460 / DLD1.

Experiment [6] concerns A549 human lung carcinoma cells. Nature of the experiment: MTS cell viability assay, A549 human lung carcinoma cells. Type of experiment: cell-based. The settings on record: A549, 4 h compound incubation, MTS, read-out: IC50 Values, Cancerous Cells, Lung A549.
Experiment [7] has as its system PACA-2 human pancreatic carcinoma cells. Nature of the experiment: MTS cell viability assay, PACA-2 human pancreatic carcinoma cells. The settings on record: PACA-2, 4 h compound incubation, MTS, read-out: IC50 Values, Cancerous Cells, Pancreas PACA-2. It counts as cell-based.

Turning to `O=C1C(=O)c2ccccc2C2=C1SCC1(CCN(C(=O)Oc3ccc(F)cc3)CC1)O2` [Compound 97, 4-fluorophenyl 5,6-dioxo-5,6-dihydro-1′H-spiro[naphtho[1,2-b][1,4]oxathiine-2,4′-piperidine]-1′-carboxylate], the IC50 was found to be 4.28 µM in experiment [1]; 4.39 µM in experiment [2]; 6.59 µM in experiment [3]; 12.6 µM in experiment [4]; 13.3 µM in experiment [5]; 26 µM in experiment [6]. Besides, in experiment [7], the half-maximal inhibitory concentration (IC50) was found to be 4.93 µM. Further, the “E2F-1 Induction (HT-29)” value in the experiment on E2F-1 was “YES”. In experiment [5], the “Fold Selectivity (NCM-460/DLD1)” value was determined as 3.0.

Take `O=C1C(=O)c2ccccc2C2=C1SCC1(CCN(C[C@@H](O)COc3ccc(Cl)cc3)CC1)O2` [Compound 183, 1′-[(2R)-3-(4-chlorophenoxy)-2-hydroxypropyl]spiro[naphtho[1,2-b][1,4]oxathiine-2,4′-piperidine]-5,6-dione]: the IC50 in experiment [1] came to 2.42 µM; in experiment [2], 1.04 µM; in experiment [3], 0.796 µM; in experiment [4], 3.88 µM; in experiment [5] it was 10.2 µM; in experiment [6], 3.1 µM. The IC50 in experiment [7] was 0.7 µM. The “E2F-1 Induction (HT-29)” value in the experiment with E2F-1 is reported as “Yes”. For the same compound, the “Fold Selectivity (NCM-460/DLD1)” value in experiment [5] came to 9.8.

Take `O=C1C(=O)c2ccccc2C2=C1SCC1(CCN(C[C@@H](O)COc3ccc(F)cc3)CC1)O2` [Compound 181, 1′-[(2R)-3-(4-fluorophenoxy)-2-hydroxypropyl]spiro[naphtho[1,2-b][1,4]oxathiine-2,4′-piperidine]-5,6-dione]: the half-inhibitory concentration (IC50) in experiment [1] turned out to be 1.32 µM; in experiment [2], 0.734 µM; in experiment [3], 1.52 µM; in experiment [4], 3.11 µM; in experiment [5], 4.53 µM; in experiment [6], 4.93 µM. In addition, the IC50 in experiment [7] is 0.909 µM. Further, the “E2F-1 Induction (HT-29)” value in the experiment on E2F-1 is “Yes”. In experiment [5], the “Fold Selectivity (NCM-460/DLD1)” value is 6.2.

On to `O=C1C(=O)c2ccccc2C2=C1SCC1(CCN(CC(O)Cc3ccccc3)CC1)O2` (stereo not drawn) [Compound 163, 1′-(2-hydroxy-3-phenylpropyl)spiro[naphtho[1,2-b][1,4]oxathiine-2,4′-piperidine]-5,6-dione], for which the half-inhibitory concentration (IC50) was determined as 1 µM in experiment [1]; 0.714 µM in experiment [2]; 1.38 µM in experiment [3]; 4.48 µM in experiment [4]; 2.84 µM in experiment [5]; 4.31 µM in experiment [6]. The half-maximal inhibitory concentration (IC50) in experiment [7] worked out at 0.764 µM. For the same compound, the “E2F-1 Induction (HT-29)” value in the experiment on E2F-1 was “Yes”. For the same compound, the “Fold Selectivity (NCM-460/DLD1)” value in experiment [5] amounted to 4.0.

Turning to `O=C1C(=O)c2ccccc2C2=C1SCC1(CCN(C(=O)Oc3cccc(C(F)(F)F)c3)CC1)O2` [Compound 96, 3-(trifluoromethyl)phenyl 5,6-dioxo-5,6-dihydro-1′H-spiro[naphtho[1,2-b][1,4]oxathiine-2,4′-piperidine]-1′-carboxylate], the half-inhibitory concentration (IC50) in experiment [1] was 36.3 µM; in experiment [2], 31.7 µM; in experiment [3], 20 µM; in experiment [4], 20.5 µM; in experiment [5], 100 µM; in experiment [6], > 100 µM. Moreover, the concentration for half-maximal inhibition (IC50) in experiment [7] was 26.7 µM. Besides, the “E2F-1 Induction (HT-29)” value in the experiment with E2F-1 is on record as “Yes”. The “Fold Selectivity (NCM-460/DLD1)” value in experiment [5] amounted to 3.2.

As to `O=C1C(=O)c2ccccc2C2=C1SCC1(CCN(C(=O)c3cccc(Cl)c3)CC1)O2` [Compound 55, 1′-(3-chlorobenzoyl)spiro[naphtho[1,2-b][1,4]oxathiine-2,4′-piperidine]-5,6-dione], the IC50 in experiment [1] is 3.93 µM; in experiment [2] it was 2.1 µM; in experiment [3] it was 3.85 µM; in experiment [4], 5.74 µM; in experiment [5] it was 11.2 µM; in experiment [6] it was 4.57 µM. The concentration for half-maximal inhibition (IC50) in experiment [7] was found to be 3.36 µM. The “E2F-1 Induction (HT-29)” value with E2F-1 is given as “Yes”. For the same compound, in experiment [5], the “Fold Selectivity (NCM-460/DLD1)” value stood at 5.3.

Consider `CC(C)(C)c1ccc(OC[C@H](O)CN2CCC3(CC2)CSC2=C(O3)c3ccccc3C(=O)C2=O)cc1` [Compound 185, 1′-[(2R)-3-(4-tert-butylphenoxy)-2-hydroxypropyl]spiro[naphtho[1,2-b][1,4]oxathiine-2,4′-piperidine]-5,6-dione], for which the IC50 is 4.46 µM in experiment [1]; 3.38 µM in experiment [2]; 1.01 µM in experiment [3]; 2.47 µM in experiment [4]; 13.7 µM in experiment [5]; 7.42 µM in experiment [6]. Besides, in experiment [7], the IC50 was found to be 1.37 µM. Besides, in the experiment on E2F-1, the “E2F-1 Induction (HT-29)” value is listed as “YES”. Moreover, the “Fold Selectivity (NCM-460/DLD1)” value in experiment [5] was found to be 4.1.

As for `O=C1C(=O)c2ccccc2C2=C1SCC1(CCN(Cc3c(F)cccc3Cl)CC1)O2` [Compound 129, 1′-(2-chloro-6-fluorobenzyl)spiro[naphtho[1,2-b][1,4]oxathiine-2,4′-piperidine]-5,6-dione], the IC50 in experiment [1] stood at 4.44 µM; in experiment [2], 3.98 µM; in experiment [3] it was 6.75 µM; in experiment [4], 7.05 µM; in experiment [5] it was 16.5 µM; in experiment [6] it was 66.9 µM. Besides, the IC50 in experiment [7] was found to be 4.12 µM. The “E2F-1 Induction (HT-29)” value in the experiment on E2F-1 is listed as “Yes”. For the same compound, the “Fold Selectivity (NCM-460/DLD1)” value in experiment [5] turned out to be 4.1.

As for `O=C1C(=O)c2ccccc2C2=C1SCC1(CCN(C(=O)c3ccc(Cl)c(Cl)c3)CC1)O2` [Compound 53, 1′-(3,4-dichlorobenzoyl)spiro[naphtho[1,2-b][1,4]oxathiine-2,4′-piperidine]-5,6-dione], the IC50 in experiment [1] came out at 1.44 µM; in experiment [2], 1.42 µM; in experiment [3], 1.37 µM; in experiment [4], 2.21 µM; in experiment [5], 8.52 µM; in experiment [6], 3.83 µM. In addition, in experiment [7], the 50% inhibitory concentration (IC50) was found to be 1.06 µM. Also, the “E2F-1 Induction (HT-29)” value with E2F-1 is given as “YES”. Further, the “Fold Selectivity (NCM-460/DLD1)” value in experiment [5] is recorded as 6.0.

Consider `Cc1nn(C)c(Cl)c1S(=O)(=O)N1CCC2(CC1)CSC1=C(O2)c2ccccc2C(=O)C1=O` [Compound 81, 1′-[(5-chloro-1,3-dimethyl-1H-pyrazol-4-yl)sulfonyl]spiro[naphtho[1,2-b][1,4]oxathiine-2,4′-piperidine]-5,6-dione], for which the IC50 in experiment [1] is 12.3 µM; in experiment [2], 12.3 µM; in experiment [3] it was 13.7 µM; in experiment [5], 30.2 µM; in experiment [6], > 100 µM; in experiment [7], 12.1 µM. Besides, in experiment [5], the “Fold Selectivity (NCM-460/DLD1)” value is listed as 2.5.

For `O=C1C(=O)c2ccccc2C2=C1SCC1(CCN(C(=O)c3ccoc3)CC1)O2` [Compound 43, 1′-(3-furoyl)spiro[naphtho[1,2-b][1,4]oxathiine-2,4′-piperidine]-5,6-dione], the 50% inhibitory concentration (IC50) in experiment [1] was 2.77 µM; in experiment [2], 2.26 µM; in experiment [3], 4.12 µM; in experiment [5], 9.44 µM; in experiment [6] it was 9.96 µM; in experiment [7], 2.14 µM. Besides, in experiment [5], the “Fold Selectivity (NCM-460/DLD1)” value came out at 4.2.

As for `COC(=O)C(=O)N1CCC2(CC1)CSC1=C(O2)c2ccccc2C(=O)C1=O` [Compound 52, methyl (5,6-dioxo-5,6-dihydro-1′H-spiro[naphtho[1,2-b][1,4]oxathiine-2,4′-piperidine]-1′-yl)(oxo)acetate], the IC50 in experiment [1] came to 2.71 µM; in experiment [2], 4.15 µM; in experiment [3], 4.49 µM; in experiment [5], 10.1 µM; in experiment [6], 14.4 µM; in experiment [7] it was 3.92 µM. The “Fold Selectivity (NCM-460/DLD1)” value in experiment [5] is 2.4.

By IC50 is commonly meant the midpoint of a concentration-inhibition curve.
